`CCC(=O)OCC(=O)C1(OC(=O)CC)CCC2C3CC(C)C4=CC(=O)C=CC4(C)C3C(O)CC21C` (stereo not given) registered a melting point of 126 °C.
Compound `Oc1ccccc1-c1ccc2nonc2c1` returned a melting point of 166 to 169 °C.
For `CCC(O)C#Cc1ncn2c1CN(C)C(=O)c1c(Cl)cccc1-2` (stereo not given) the value was 178 °C; for `ClC1=Nc2ccccc2Sc2ccccc21`, 93 to 97 °C.
For `CS(=O)(=O)Oc1cnc2cc(C(F)(F)F)ccc2c1O` the value was 220 °C; for `NN=CNCCCCNC(=O)[C@@H]1CCCN1C(=O)[C@@H](CCC(N)=O)NS(=O)(=O)c1ccc2ccccc2c1`, 72 to 74 °C.
As for `O=C(c1ccc(Cl)cc1)c1cc([N+](=O)[O-])ccc1N1CCC(Cc2ccccc2)CC1`, the melting point was determined as 211 °C.
`Cc1nc(-c2ccc(C(C)(C)C)cc2)sc1C(=O)N[C@H](C)[C@](O)(Cn1cncn1)c1ccc(F)cc1F` yielded a melting point of 85 to 91 °C.
In turn, `O=C1c2ccccc2CN1C1CCNCC1` had a melting point of 144 to 146 °C.
`CCCCC(CC)COc1ccc(-c2nc(-c3ccc(OCC(CC)CCCC)cc3O)nc(-c3cccn3Cc3ccccc3)n2)c(O)c1` (stereo not given) returned a melting point of 66 to 68 °C.
For `CCCCCCCCC=CCCCCCCCCN1CC(C(=O)OC)N(S(=O)(=O)c2ccc(-c3ccc(Br)cc3)cc2)CC1=O` (stereo not given) the value was 108 °C; for `CC1CC(=O)c2cccc(C#N)c21` (stereo not given), 109 to 111 °C; for `CC(C)CCNC(=S)c1ccc2c(c1)N(C(C)CN1CCC[C@@H]1CO)c1ccccc1S2` (stereo not given in full), 140 °C.
As to `COc1ccc(-c2nnc(NC3CCN(Cc4ccccc4)CC3)c3cc(OC)cc(OC)c23)cc1`, the melting point worked out at 168 °C.
In the case of `CC(=O)Nc1ccc(S(=O)(=O)N(Cc2cc(C(C)(C)C)c(O)c(C(C)(C)C)c2)c2cccnc2)cc1`, the melting point was in the range of 167 to 169 °C.
With `N#Cc1ccc2[nH]cc(CCNCC(F)(F)F)c2c1`, the melting point was 102 °C.
Compound `CON=Cc1ccc2c(c1)ncn2-c1cccc(-c2nccs2)c1` had a melting point of 154 to 160 °C.
The compound `CCS(=O)(=O)c1ccc(SC2SCC(OC(C)=O)C(OC(C)=O)C2OC(C)=O)cc1` (stereo not given) registered a melting point of 136 to 137 °C.
Then `COc1ccccc1C(=O)c1sc(Nc2cccnc2)nc1N`, with 245 to 246 °C; and `CC1CN(C(=O)Nc2ccc(Cl)cc2)N=C1c1ccc(Cl)cc1` (stereo not given), with 139 to 140 °C; and `Clc1ccc(-c2c[nH]nc2-c2ccncc2)cc1`, with 204 to 207 °C.
Then `Cn1c(SCC(=O)C23CC4CC(CC(C4)C2)C3)nc2ccccc21`, with 146 to 148 °C; and `CC(=O)c1nc(N)nc(N)c1-c1ccc(Cl)cc1`, with 206 to 208 °C.
Compound `NC(=O)OCC(OC(N)=O)c1ccccc1Cl` (stereo not given) showed a melting point of 167 to 169 °C.
In the case of `O=C1CCC(c2ccc(NC(=O)C3CC3(Cl)Cl)cc2)=NN1` (stereo not given), the melting point was 267 to 268 °C.
Compound `CN1C(=O)N(C[C@@H]2COC(=O)[C@@H]2CC2CCCC2)C(=O)C1(C)C` (racemic) yielded a melting point of 71 to 74 °C.
Regarding `CCn1ncc(C(=O)c2ccc(S(C)(=O)=O)c(N3CCOC(=O)C3)c2Cl)c1O`, the melting point fell in the range of 198 to 202 °C.
Then `Cn1ccnc1CNC(=O)c1[nH]c2ccc(Cl)cc2c1S(=O)(=O)c1cccc(Cl)c1`, with 232 to 234 °C.
On to `O=c1[nH]c2ccc(F)cc2s1`, for which the melting point is 188 to 189 °C.
The compound `CSC1=Nc2ccccc2N(C)c2cscc21` returned a melting point of 113 to 115 °C.
As for `COc1ccc(C=CC(=O)O)cc1-c1cc2c(cc1OCCCCCC(N)=O)C(C)(C)CCC2(C)C`, the melting point was 133 to 135 °C.
Compound `Cn1nc2c(-c3ccc(Cl)cc3Cl)cccc2c1C(=O)NCCO` had a melting point of 188 to 190 °C.
Compound `O=C(O)CCc1cc(OCCCCc2cc(-c3ccc(C(F)(F)F)cc3)no2)nn1-c1ccccc1` came in with a melting point of 139 to 140 °C.
In turn, `Cc1nc2n(c1CCN(C)C)CCCC2OCc1ccccc1` (stereo not given) displayed a melting point of 68 to 70 °C.
`Cc1cc(-c2cc(C(F)(F)F)n3cnc(-c4ccncc4)c3n2)ccc1Cl` displayed a melting point of 254 °C.
`CCCn1cnc2c1c(=O)n(CCCCCCOc1ccc(OC)cc1)c(=O)n2C` yielded a melting point of 56 to 67 °C.
The compound `CN1C(C)(C)CC(OC(=O)CCc2cc(-n3nc4ccc(S(=O)(=O)c5ccccc5)cc4n3)c(O)c(C(C)(C)C)c2)CC1(C)C` had a melting point of 45 to 52 °C.
As for `CNc1c(F)cc2c(=O)c(C(=O)O)cn(-c3cc(N)c(F)cc3Br)c2c1Cl`, the melting point was above 280 °C.
The compound `CC(C)OC(=O)C(C)(C)c1cn2nc(Cl)ccc2n1` returned a melting point of 100 to 101 °C.
`CC(C)[C@H](NC(=O)N(C)Cc1csc(C2CCCC2)n1)C(=O)N[C@@H](Cc1ccccc1)C[C@H](O)[C@H](Cc1ccccc1)NC(=O)OCc1cncs1` came in with a melting point of 70 to 71 °C.
In turn, `COc1ccc(Cc2ccc(Sc3ccccc3)s2)cc1` returned a melting point of 92 to 93 °C.
`Cc1ccc2c(c1)C1CN(CCO)CCC1N2` (stereo not given) returned a melting point of 182 to 185 °C.
`CCOC(=O)CN(C(=O)C(F)(F)F)c1ccc(Cl)cc1C#N`: the melting point was in the range of 71 to 73 °C.
Regarding `Cc1ccc(S(=O)(=O)N2CCN(c3ccc(O)cc3)CC2)cc1`, the melting point came out at 193 °C.
On to `NS(=O)(=O)Cc1ccc(NCC(=O)N2CCC(Oc3ccc(Cl)cc3)CC2)cc1`, for which the melting point is 180 to 187 °C.
With `COc1ccc(-c2nn(CCCc3ccccc3)c(=O)cc2-c2ccncc2)cc1`, the melting point is 67.7 to 68.3 °C.
Compound `Cc1nc2ccc3ccc(CNc4ccc(C(=O)O)c(F)c4)cc3c2c(=O)[nH]1` yielded a melting point above 250 °C.
In the case of `C#CCNC(=O)c1ccc2ccccc2c1`, the melting point was in the range of 163 to 165 °C.
Then `CC(C)CCS(=O)c1cccc(-c2nc(=O)c3ccccc3s2)n1` (stereo not given), with 59.5 to 61 °C; and `C[C@H](NC(=O)OC(C)(C)C)C(=O)ON1C(=O)CCC1=O`, with 164 °C; and `CC(c1oc2ccccc2c(=O)c1-c1cccc(F)c1)n1nc(-c2cccc(OC(F)F)c2)c2c(N)ncnc21` (stereo not given), with 176 to 179 °C.
As for `CC1CC2C3CCC4=CC(=O)C=CC4(C)C3=CCC2(C)C1C(=O)CN1CCN(c2cc(NC(C)(C)C)nc(NC(C)(C)C)n2)CC1` (stereo not given), the melting point was 145 to 155 °C.
Take `CNC(=O)C(SC)c1cccc(C(=O)c2ccccc2)c1N` (stereo not given): the melting point fell in the range of 149 to 150 °C.
`CCOC(=O)Cc1c(-c2ccccc2)c2cc3c(cc2oc1=O)C(=O)OC3` showed a melting point of 222 to 223 °C.
For `O=C(O)CN(C(=O)OCc1ccccc1)C1CCCC1`, the melting point worked out at 110 °C.
In the case of `CCOC(=O)C1CCN(C(N)=S)CC1`, the melting point was in the range of 97 to 98 °C.
Then `CC(C)(F)CC(=O)c1cc(C(C)(C)C)c(O)c(C(C)(C)C)c1`, with 94 °C; and `COc1ccc(C(=O)O)cc1Nc1ccccc1`, with 198 to 200 °C; and `CC(=O)NCc1ccn(-c2cc3c(cc2C(F)(F)F)[nH]c(=O)c(=O)n3CC(=O)O)c1`, with 250 to 251 °C.
`COC(=O)C=CN1c2ccccc2Sc2nccnc21` registered a melting point of 165 to 169 °C.
For `Cc1cn(C2CC(O)C(C#N)(CO)O2)c(=O)[nH]c1=O` (stereo not given) the value was 238 to 242 °C.
With `CC(C)(C(N)=O)n1cc(-c2ccc(Oc3ccccc3)cc2)c2c(N)ncnc21`, the melting point lay within 227 to 228 °C.
Then `COc1cc2c(c(Cl)c1Cl)C(=O)C(CCCCl)C2` (stereo not given), with 130 to 132 °C; and `O=C1OCCN1CCN1CCN(C2Cc3ccc(Cl)cc3Sc3cc(F)ccc32)CC1` (stereo not given), with 168 to 170 °C.
`COC(=O)c1cc2c3cc(Br)ccc3n(Cc3ccccc3)c2s1`: the melting point was 134 to 135 °C.
Compound `CCOC(=O)C1=C(C#N)NC(C)=C(C(=O)OCCOCc2ccccc2)C1c1cccc([N+](=O)[O-])c1` (stereo not given) displayed a melting point of 114 to 115 °C.
For `COC(=O)c1cc(C)c(C(OC(=O)C(C)NS(=O)(=O)c2ccc(C)cc2)c2cc(-n3ccnc3)ccc2C)c(C)c1` (stereo not given) the value was 103 to 105 °C; for `CCOc1ccc(C=NO)cc1`, 81 to 86 °C.
Regarding `CCOc1cc(-c2ccc(C(F)(F)F)cc2)nc(-c2cccc(C(F)(F)F)c2)c1`, the melting point was 95.1 °C.
The compound `CN(C)CCCCCCOc1ccc(CC(=O)c2ccccc2)cc1` returned a melting point of 53 to 54 °C.
Compound `CNC(=O)NC1(C)CCCc2sccc21` (stereo not given) came in with a melting point of 135 to 145 °C.
`COC(=O)CN(C)CC(=O)Nc1cccc2c1C(=O)c1c(NC(=O)CN(C)CC(=O)OC)cccc1C2=O`: the melting point lay within 129 to 130 °C.
For the compound `Cn1c(C(N)=O)c(-c2ccc(F)cc2)c2cccnc2c1=O`, the melting point lay in the range of 329 to 330 °C.
For the compound `Clc1cccc(C2CCN(CCCOc3ccc4scnc4c3)CC2)c1Cl`, the melting point is 114 to 116 °C.
For `C[C@H](CN(O)C(N)=O)NC(=O)c1cccc(Oc2ccccc2)c1` the value was 154 °C.
As to `Cc1ccc(C(=O)OC2CCC3(C)C(=CCC4C3CCC3(C)C(=NO)CCC43)C2)cc1` (stereo not given), the melting point lay within 135 to 139 °C.
Then `O=c1c2c(Cc3ccccc3)n[nH]c2c2cccnc2n1-c1cccc(F)c1`, with 298 to 299 °C; and `CC(C)(C)OC(=O)N1CCN(c2ccc3c(c2)-n2c(nc4ccccc4c2=O)C3=O)CC1`, with 226 to 228 °C; and `CCOCc1nc2c(N)nc3cc(-c4cccc(C(=O)N5CCCC5)c4)cnc3c2n1CC(C)(C)O`, with 185 to 187 °C.
As to `COc1ccc(C2=CCN(CCCN3c4cccc5cccc(c45)S3(=O)=O)CC2)cc1`, the melting point is 178 °C.
In turn, `CCc1nc2cccc(C)c2c(=O)n1-c1ccc(F)cc1` returned a melting point of 170 °C.
Compound `O=C1CN(S(=O)(=O)CC(Cc2ccccc2)C(=O)O)CCN1` (stereo not given) displayed a melting point of 168 to 171 °C.
For the compound `Cc1cc(Nc2ccnc(Cl)n2)ccc1F`, the melting point is 130 to 131 °C.
Take `CN1C(=O)N(c2ccc(C(=O)O)cc2)S(=O)(=O)c2ccc(OCC3CCCCC3)cc21`: the melting point is 240 to 241 °C.
For `CC(=O)N1CCO[C@@H]2c3ccccc3OCC[C@H]21` (relative stereo), the melting point lay in the range of 97 to 98 °C.

For the origin of these results see a melting point compilation (Tetko et al.; mined from patent text by program, amines drawn as free bases though some values may be those of a salt).
